Substitutions are numbered along the chain they refer to. Several values for one entry are separate records, joined by “and”; a condition that tells them apart may be missing. Equal values may be shown once.
Key:
THIK-1 R87D = molecular target: T1, THIK-1 R87D (Homo sapiens, UniProt Q9HB14, R87D); experiment: Macroscopic inside-out excised patch recordings, oocytes, THIK-1 R87D mutant; assay type: cell-based
T1 construct: expressed in transfected cells; host or cells: Xenopus oocytes (mRNA injection)
T1 sequence (Q9HB14 1-408 R87D): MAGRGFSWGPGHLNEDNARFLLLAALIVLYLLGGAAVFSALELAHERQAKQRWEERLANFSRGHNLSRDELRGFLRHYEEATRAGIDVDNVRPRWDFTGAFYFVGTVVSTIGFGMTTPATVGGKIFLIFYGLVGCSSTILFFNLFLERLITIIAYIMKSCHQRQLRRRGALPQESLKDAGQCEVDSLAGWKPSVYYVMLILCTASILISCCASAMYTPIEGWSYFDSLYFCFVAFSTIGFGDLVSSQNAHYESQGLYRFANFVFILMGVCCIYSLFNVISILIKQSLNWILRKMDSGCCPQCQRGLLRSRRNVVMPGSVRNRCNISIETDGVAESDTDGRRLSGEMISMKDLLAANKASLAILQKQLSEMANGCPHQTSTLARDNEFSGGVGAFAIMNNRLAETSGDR
Source text: (§1) Human K2P13.1 THIK-1 (GenBank accession number: NM_022054) and human K2P12.1 THIK-2 (NM_022055.1) were used in this study. For functional expression studies, the respective K^+ channel subtype coding sequences were subcloned into the oocyte expression vector pSGEM or the dual-purpose expression vector pFAW[41] and verified by sequencing. All mutant channels were obtained by site-directed mutagenesis and verified by sequencing. To increase surface expression and macroscopic currents, measurements of THIK-2 channels used a mutated ER retention motif, (R11A R12A R14A R15A R16A; THIK-2*)[20]. Vector DNA was linearized with NheI or MluI, and mRNA was synthesized in vitro using the SP6 or T7 AmpliCap Max High Yield Message Maker Kit (Cellscript, USA) or HiScribe T7 ARCA mRNA Kit (New England Biolabs).
(§2) Two-electrode voltage–clamp (TEVC) studies were performed in Xenopus oocytes. All animal use conformed to the Guide for the Care and Use of Laboratory Animals (NIH Publication 85–23), and all experiments using Xenopus toads were approved by the local ethics panels. Oocytes were stored at 17 °C in ND96 recording solution composed of (in mM): 96 NaCl, 2 KCl, 1.8 CaCl2, 1 MgCl2, 5 HEPES (pH 7.5 adjusted with NaOH and HCl), supplemented with Na-pyruvate (275 mg L^–1), theophylline (90 mg L^–1) and gentamicin (50 mg L^–1). Oocytes were injected with 1 ng mRNA for WT or mutant channels, and were incubated for 24–48 h at 17 °C. Two-electrode voltage clamp recordings were then performed as previously described[42],[43]. For macroscopic patch–clamp measurements, oocytes were obtained as described above incubated at 17 °C in a solution containing (mM): 54 NaCl, 30 KCl, 2.4 NaHCO3, 0.82 MgSO4 ×7 H2O, 0.41 CaCl2, 0.33 Ca(NO3)2 ×4 H2O and 7.5 TRIS (pH 7.4 adjusted with NaOH and HCl) for 1–4 days before use. Excised patch recordings in inside-out configuration conditions were performed at room temperature. Patch pipettes were made from thick-walled borosilicate glass GB 200TF-8P (Science Products), had resistances of 0.2–0.5 MΩ (tip diameter, 10–25 µm) and filled with a pipette solution (in mM): 120 KCl, 10 HEPES and 3.6 CaCl2 (pH 7.4 adjusted with KOH and HCl). Intracellular bath solutions and compounds were applied to the cytoplasmic side of excised patches for the various K^+ channels through a gravity flow multi-barrel pipette system. The intracellular solution had the following composition (in mM): 120 KCl, 10 HEPES, 2 EGTA and 1 pyrophosphate (pH adjusted with KOH and HCl). Currents were recorded with an EPC10 amplifier (HEKA Electronics) and sampled at 10 kHz or higher, with filtering set to 3 kHz (–3 dB) or higher, as appropriate for sampling rate. For measurements of GPCR activation, whole-cell currents were recorded for THIK-1 in transiently transfected HEK-293 cells. Cells were stimulated by a ramp protocol between −100 and +60 mV (holding potential, −80 mV). The pipette solution was composed of (in mM): 140 KCl, 2 MgCl2, 1 CaCl2, 2.5 EGTA and 10 HEPES (pH 7.3 adjusted with KOH and HCl). The extracellular bath solution had the following composition (in mM): 135 NaCl, 5 KCl, 2 MgCl2, 2 CaCl2, 10 glucose and 10 HEPES pH (pH 7.3 adjusted with NaOH and HCl). Oxotremorine M (Oxo-M) was added to extracellular bath solution to obtain the final concentration. Single-channel currents were recorded with an Axopatch 200B amplifier through a Digidata 1440A digitizer (Molecular Devices). Data were filtered at 2 kHz and recorded at a 200-kHz sampling rate with the program Clampex (Molecular Devices). Pipette solution and bath solution for cell-attached recordings contained (in mM): 140 KCl, 2 MgCl2, 1 CaCl2 and 10 HEPES (pH 7.4 adjusted with KOH and HCl). For inside-out recordings, the bath solution contained (in mM): 140 KCl, 2 MgCl2, 1 CaCl2 and 10 HEPES (pH 7.2 adjusted with KOH and HCl). All experiments were conducted at room temperature. […]

THIK-1 Y273A/I139A = molecular target: T2, THIK-1 Y273A/I139A (Homo sapiens, UniProt Q9HB14, I139A/Y273A); experiment: Inside-out excised patch recordings, oocytes, THIK-1 Y273A/I139A double mutant; assay type: cell-based; conditions: for τ of 1 mM TPenA block / τ of 1 mM TPenA release: I139A/Y273A; for Normalized currents: THIK-1 Y273A/I139A
T2 construct: expressed in transfected cells; host or cells: Xenopus oocytes (mRNA injection)
T2 sequence (Q9HB14 1-408 I139A/Y273A): T1 sequence (Q9HB14 1-408 R87D) with D87R, I139A, Y273A
Source text: as §1, §2

Row | SMILES | Inhibition (%) (THIK-1 R87D; 3.0 mM halothane, R87D, individual recordings) | inhibition at 3000 µM (THIK-1 R87D; 3.0 mM halothane, R87D, mean) [%] | inhibition at 152 µM (THIK-1 R87D; THIK-1 R87D, 0.152 mM halothane) [%] | inhibition at 304 µM (THIK-1 R87D; THIK-1 R87D, 0.304 mM halothane) [%] | inhibition at 1520 µM (THIK-1 R87D; THIK-1 R87D, 1.52 mM halothane) [%] | inhibition at 15200 µM (THIK-1 R87D; THIK-1 R87D, 15.2 mM halothane) [%] | τ of 1 mM TPenA block (THIK-1 Y273A/I139A; individual recordings) | τ of 1 mM TPenA release (THIK-1 Y273A/I139A; individual recordings) | τ of 1 mM TPenA block (THIK-1 Y273A/I139A; mean) [s] | τ of 1 mM TPenA release (THIK-1 Y273A/I139A; mean) [s] | Normalized currents (THIK-1 Y273A/I139A; TPenA 0.1 µM) | Normalized currents (THIK-1 Y273A/I139A; TPenA 1 µM) | Normalized currents (THIK-1 Y273A/I139A; TPenA 4 µM) | Normalized currents (THIK-1 Y273A/I139A; TPenA 15.6 µM) | Normalized currents (THIK-1 Y273A/I139A; TPenA 62.5 µM) | Normalized currents (THIK-1 Y273A/I139A; TPenA 250 µM) | Normalized currents (THIK-1 Y273A/I139A; TPenA 1000 µM) | Normalized currents (THIK-1 Y273A/I139A; TPenA 4000 µM)
1 | FC(F)(F)C(Cl)Br (stereo not drawn) [halothane] | 54.110% and 64.133% and 70.295% and 57.409% and 74.945% and 46.769% and 63.754% and 70.637% and 69.367% and 64.901% and 58.344% and 70.045% and 57.366% and 63.096% and 56.800% | 62.8 | 14.3 | 26 | 53.8 | 84.1 |  |  |  |  |  |  |  |  |  |  |  | 
2 | CCCCC[N+](CCCCC)(CCCCC)CCCCC [TPenA, tetrapentylammonium] |  |  |  |  |  |  | 0.121 s and 0.062 s and 0.131 s and 0.164 s and 0.120 s and 0.094 s and 0.191 s and 0.111 s and 0.116 s and 0.183 s and 0.093 s and 0.084 s and 0.142 s and 0.070 s and 0.095 s and 0.042 s | 0.960 s and 0.559 s and 1.130 s and 0.565 s and 0.799 s and 0.283 s and 0.914 s and 0.634 s and 0.842 s and 0.928 s and 0.662 s and 0.571 s and 0.449 s and 0.371 s and 1.055 s | 0.11 | 0.71 | 1.00 | 0.95 | 0.90 | 0.68 | 0.47 | 0.22 | 0.08 | 0.03

Reference: publication PMC12263422, “Cryo-EM structure of the human THIK-1 K2P K^+ channel reveals a lower Y gate regulated by lipids and anesthetics” (Nature Structural & Molecular Biology, 2025)
